Experimental data reported in patent publication US20260021186A1, “Fatty Acid-D-Amino Acid Peptides Conjugates as Anaplerotic Compounds for Use in Treating Propionic Acidemia, Methylmalonic Acidurias, and Energy Metabolic Disorders” (University of Pittsburgh - Of the Commonwealth System of …, priority 2022, published 2026).

Legend:
[1] = system: propionic acidemia (PA) fibroblast cell line Fb900; assay: Mitochondrial ROS production using MitoSOX Red; assay type: cell-based, human; conditions: FIG. 15C; 180 and 640 μM, 72 h
Description: (§1) FIGS. 15A-15D are graphs showing the measurement of mitochondrial reactive oxygen species (ROS) production using MitoSOX Red as Superoxide indicator probe. FIG. 15A is a graph showing control fibroblast cell line FB826 treated with PMA010, PMA011, PMA019, and PMA020. FIG. 15B is a graph showing propionic acidemia (PA) patients' fibroblast cell linc Fb859 treated with PMA010, PMA011, PMA019, and PMA020. FIG. 15C is a graph showing propionic acidemia (PA) patients' fibroblast cells line Fb900 treated with PMA010, PMA011, PMA019, and PMA020. FIG. 15D is a graph comparing ROS production levels in response to treatment with PMA011 in Control fibroblast cell line (FB826), PA fibroblast cell line (Fb900), and glutaric acidemia II (GA II) patient fibroblast cell lines (Fb930, Fb961). Data are the average of readings from 3 replicate wells.
(§2) Measurement of mitochondrial ROS production using MitoSOX Red as superoxide indicator probe: control (Fb826), PA patient (Fb859, Fb900) and GA II patient (Fb930, Fb961) fibroblasts were grown in regular DMEM media containing glucose/pyruvate/L-glutamine until 85-90% confluency. The cells were harvested and seeded at a concentration of 25,000 cells/80 μl (n=3) in cell culture treated black wall 96 well microplate with clear bottom in regular DMEM media containing glucose/pyruvate/L-glutamine and incubated overnight at 37° C. in a 5% CO2 incubator. Following day, the culture media was replaced in designated wells with the following for 72 h: 150 μl regular DMEM (Glucose+10% FBS+sodium pyruvate+L-glutamine+0.5 mM carnitine). 150 μl of Regular DMEM containing experimental compounds (180 and 640 μM) PMA010 or PMA011 or PMA 019 and (640 μM) PMA020 in control and propionic acidemia patient fibroblasts. 150 μl of regular DMEM containing experimental compounds (600 and 1200 μM) PMA011 in Fb930 and (1200 μM) PMA011 in Fb961 GA II patient fibroblast. After 72 h incubation the wells were washed twice with 150 μL of Seahorse XFDMEM base media and in respective designated wells the following Assay buffer (150 μL of seahorse XFDMEM base media containing glucose, sodium pyruvate and Glutamine) was used along with 5 μM MitoSOX reagent and incubated at 37° C. non-CO2 incubator for 15 minutes protected from light. After 15 minutes incubation the cells were washed twice with 150 μL of seahorse XFDMEM base media and replaced with measurement buffer, which is same as the wash buffer. The fluorescence was monitored with excitation at 520 nm and emission at 580 nm. Finally, cells were lysed, and protein content was determined. Data is normalized to protein concentration and fluorescence is reported as MitoSOX Red (AFU)/mg protein.

[2] = system: control fibroblast cell line FB826; assay: Mitochondrial ROS production using MitoSOX Red; assay type: cell-based, human; conditions: FIG. 15A; 180 and 640 μM, 72 h
Description: as §1, §2

C[C@@H](NC(=O)CCCCC(=O)O)C(=O)N[C@H](Cc1c[nH]cn1)C(=O)O [PMA010, 6-(((R)-1-(((R)-1-carboxy-2-(1H-imidazol-4-yl)ethyl)amino)-1-oxopropan-2-yl)amino)-6-oxohexanoic acid]
ROS detected (MitoSOX Red) [1]: significant decrease in ROS | ROS detected (MitoSOX Red) [2]: significant decrease in ROS
